In data set [1] the test system is HepG-2. In words: MTT antiproliferative assay, HepG-2. It is filed as cell-based, human. Particulars: mean ± SD. From the text: (§1) The MTT method was used to evaluate the anti-tumor activity and cytotoxic activity of all the synthesized compounds in four tumor cell lines (HeLa, HCT-116, A549 and HepG-2) and normal liver cells (L02). At the same time, the 5-fluorouracil(5-Fu) and CA-4 were used as positive references. […] Unfortunately, our target compound has a similar cytotoxicity to tumor cells and normal cells.
(§2) The HeLa, HCT-116, A549 and HepG-2 cells in the logarithmic growth phase were trypsinized, diluted with 10% DMEM medium and evenly seeded in a 96-well plate with 1 × 10^4 cells per well. We placed the inoculated 96-well plate in an incubator at 37 °C and 5% CO2 for 4 h. After the cells adhered to the wall, we removed the medium. We added 150 μL of medicated medium (1% DMEM) to each well of the experimental group, and the control group was added with an equal volume of solvent, with 3 replicate holes for each concentration. Then, we put it in the incubator and continued to incubate for 48 h. After that, we added MTT reagent in the dark, continued incubating for 4 h, discarded the supernatant, added 150 µL DMSO to each well and shook it for 10 min in the dark to fully dissolved the formazan. The absorbance was read at 492 nm by a microplate reader (ELx 800, BioTek, Highland Park, Winooski, VT, USA).
(§3) The inhibition rate (%) = (1-dosing hole OD value/control hole OD value); we drew a logarithmic curve diagram according to the inhibition rate and the dosing concentration to obtain the half inhibitory concentration.

Data set [2] relates to HCT116. In words: MTT antiproliferative assay, HCT116. Particulars: mean ± SD. It is filed as cell-based, human.
Description: as §1, §2, §3

The subject of data set [3] is L02. In words: MTT cytotoxicity assay, normal liver cells L02. It counts as cell-based. The settings on record: mean ± SD.
Description: as §1, §2, §3
(Tetrazolium assays rely on reduction of a dye to a coloured formazan, in cell work by metabolically active cells.)

Data set [4] deals with HeLa, HCT-116, A549 and HepG-2. In words: MTT antiproliferative activity across the four tumor cell lines. It counts as cell-based, human. Particulars: SAR discussion.
Description: as §1
As shown in, at the beginning, we first synthesized the ortho and meta substituted compounds, D7, D8, D9, D11 and D15. […] Then, we decided to introduce para-substituted benzaldehyde. […] This stimulated our interest, so we continued to introduce -OCH3 substituted at different positions to explore the effect of -OCH3 substituted at different positions on the anti-tumor activity of the compound. […] In short, we obtained a compound named D13 with good anti-tumor activity, and it was worthy of further study.
as §2, §3

In data set [5] the test system is HeLa. Description: MTT antiproliferative assay, HeLa. Particulars: 48 h, mean ± SD. It is filed as cell-based, human.
Description: as §1, §2, §3

In data set [6] the test system is A549. In words: MTT antiproliferative assay, A549. The settings on record: mean ± SD. It is filed as cell-based, human. Here is the method:
The MTT method was used to evaluate the anti-tumor activity and cytotoxic activity of all the synthesized compounds in four tumor cell lines (HeLa, HCT-116, A549 and HepG-2) and normal liver cells (L02).
as §2, §3

One may read the melting point as the temperature, or range, at which the solid turns liquid. By IC50 is commonly meant the concentration that gives 50% inhibition. A low value points to greater potency.

As to `COc1cc(N(Cc2ccc(C)cc2)S(=O)(=O)c2ccc3c(c2)CCC(=O)N3)cc(OC)c1OC` [Compound D5, N-(4-methylbenzyl)-2-oxo-N-(3,4,5-trimethoxyphenyl)-1,2,3,4-tetrahydroquinoline-6-sulfonamide], the melting point lay within 128 to 130 °C. This compound also had an IC50 in data set [1] (Homo sapiens, HepG2, 48 h) of 2.36 ± 0.11 µM. This compound returned an IC50 in data set [2] (Homo sapiens, HCT-116, 48 h) of 1.13 ± 0.01 µM. In data set [3] (Homo sapiens, L02, 48 h), this compound gave an IC50 of 3.05 ± 0.19 µM. In data set [4], the “antiproliferative activity (in words)” value was “strong anti-proliferative activity”. This compound also came in with an IC50 in data set [5] (Homo sapiens, HeLa) of 1.34 ± 0.3 µM. Further, the IC50 in data set [6] (Homo sapiens, A549, 48 h) is 2.96 ± 0.13 µM.

As to `O=c1[nH]cc(F)c(=O)[nH]1` [Compound 5-Fu, 5-fluorouracil, reference compound], the IC50 in data set [1] (Homo sapiens, HepG2, 48 h) came to 18.3 ± 0.76 µM; in data set [2] (Homo sapiens, HCT-116, 48 h), 11.7 ± 2.37 µM; in data set [3] (Homo sapiens, L02, 48 h), 20 ± 1.25 µM; in data set [5] (Homo sapiens, HeLa) it was 29.6 ± 3.21 µM.

For `COc1cc(N(Cc2ccc(Cl)c(Cl)c2)S(=O)(=O)c2ccc3c(c2)CCC(=O)N3)cc(OC)c1OC` [Compound D10, N-(3,4-dichlorobenzyl)-2-oxo-N-(3,4,5-trimethoxyphenyl)-1,2,3,4-tetrahydroquinoline-6-sulfonamide], the melting point was in the range of 123 to 125 °C. Besides, the IC50 in data set [2] (Homo sapiens, HCT-116, 48 h) is 51.2 ± 13.5 µM. Further, in data set [3] (Homo sapiens, L02, 48 h), inhibition was half-maximal at 48.3 ± 6.64 µM (IC50). For the same compound, the IC50 in data set [5] (Homo sapiens, HeLa) was found to be 75.3 ± 10.3 µM. The compound also gave an IC50 in data set [6] (Homo sapiens, A549, 48 h) greater than 100 µM.

With `COc1ccc(OC)c(CN(c2cc(OC)c(OC)c(OC)c2)S(=O)(=O)c2ccc3c(c2)CCC(=O)N3)c1` [Compound D15], the melting point lay in the range of 127 to 129 °C. The compound also gave an IC50 in data set [1] (Homo sapiens, HepG2, 48 h) of 75.4 ± 15.4 µM. This compound registered an IC50 in data set [2] (Homo sapiens, HCT-116, 48 h) greater than 100 µM. Besides, the IC50 in data set [3] (Homo sapiens, L02, 48 h) is greater than 100 µM. In data set [4], the “antiproliferative activity (in words)” value was “poor antiproliferative activity”. The compound further had an IC50 in data set [5] (Homo sapiens, HeLa) of 86.4 ± 14.2 µM.

`COc1ccc(CN(c2cc(OC)c(OC)c(OC)c2)S(=O)(=O)c2ccc3c(c2)CCC(=O)N3)cc1OC` [Compound D14, N-(3,4-dimethoxybenzyl)-2-oxo-N-(3,4,5-trimethoxyphenyl)-1,2,3,4-tetrahydroquinoline-6-sulfonamide] came in with a melting point of 116 to 118 °C. The IC50 in data set [2] (Homo sapiens, HCT-116, 48 h) amounted to 87.8 ± 15.2 µM. Moreover, half-maximal inhibition in data set [3] (Homo sapiens, L02, 48 h) (IC50) required 66.5 ± 7.81 µM. For the same compound, the “antiproliferative activity (in words)” value in data set [4] is “poor antiproliferative activity”. The same compound yielded an IC50 in data set [5] (Homo sapiens, HeLa) greater than 100 µM. In addition, the midpoint of inhibition in data set [6] (Homo sapiens, A549, 48 h), the IC50, lay at 49.3 ± 12.5 µM.

On to “N-benzyl-2-oxo-N-(3,4,5-trimethoxyphenyl)-1,2,3,4-tetrahydroquinoline-7-sulfonamide [Compound D1]”, for which the half-maximal inhibitory concentration (IC50) in data set [1] (48 h) came to 9.87 ± 2.49 µM; in data set [2] (48 h) it was 25.9 ± 0.98 µM; in data set [3] (48 h) it was 20.7 ± 3.12 µM; in data set [5], 13.5 ± 2.15 µM; in data set [6] (48 h), 14.2 ± 1.26 µM. The “antiproliferative activity (in words)” value in data set [4] is given as “strong anti-proliferative activity”.

On to `COc1cc(CN(c2cc(OC)c(OC)c(OC)c2)S(=O)(=O)c2ccc3c(c2)CCC(=O)N3)cc(OC)c1OC` [Compound D16, 2-oxo-N-(3,4,5-trimethoxybenzyl)-N-(3,4,5-trimethoxyphenyl)-1,2,3,4-tetrahydroquinoline-6-sulfonamide], for which the melting point is 131 to 133 °C. Inhibition in data set [1] (Homo sapiens, HepG2, 48 h) was half-maximal at 5.48 ± 1.23 µM (IC50). For the same compound, in data set [2] (Homo sapiens, HCT-116, 48 h), half-maximal inhibition (IC50) was put at 2.08 ± 0.24 µM. Moreover, the IC50 in data set [3] (Homo sapiens, L02, 48 h) was found to be 4.25 ± 0.87 µM. For the same compound, inhibition in data set [5] (Homo sapiens, HeLa) was half-maximal at 4.91 ± 0.76 µM (IC50). The compound also registered an IC50 in data set [6] (Homo sapiens, A549, 48 h) of 7.34 ± 1.44 µM.

In turn, `COc1cccc(CN(c2cc(OC)c(OC)c(OC)c2)S(=O)(=O)c2ccc3c(c2)CCC(=O)N3)c1` [Compound D12, N-(3-methoxybenzyl)-2-oxo-N-(3,4,5-trimethoxyphenyl)-1,2,3,4-tetrahydroquinoline-6-sulfonamide] had a melting point of 121 to 123 °C. In data set [1] (Homo sapiens, HepG2, 48 h), the midpoint of inhibition, the IC50, lay at 64.1 ± 7.56 µM. The compound also had a half-maximal inhibitory concentration (IC50) in data set [2] (Homo sapiens, HCT-116, 48 h) of 48.2 ± 7.46 µM. The compound further returned an IC50 in data set [3] (Homo sapiens, L02, 48 h) of 56.3 ± 2.15 µM. For the same compound, the “antiproliferative activity (in words)” value in data set [4] is “poor antiproliferative activity”. In data set [5] (Homo sapiens, HeLa), it took 54.6 ± 8.15 µM to reach half-maximal inhibition (IC50).

`COc1ccc(/C=C\c2cc(OC)c(OC)c(OC)c2)cc1O` [CA-4, Combretastatin A-4, reference compound]: the IC50 in data set [1] (Homo sapiens, HepG2, 48 h) was 0.05 ± 0.021 µM; in data set [2] (Homo sapiens, HCT-116, 48 h), 0.04 ± 0.016 µM; in data set [3] (Homo sapiens, L02, 48 h) it was 0.15 ± 0.05 µM; in data set [5] (Homo sapiens, HeLa), 0.02 ± 0.001 µM; in data set [6] (Homo sapiens, A549, 48 h), 0.12 ± 0.023 µM.

The record behind these values is article PMC8911884, “Discovery of Novel 3,4-Dihydro-2(1H)-Quinolinone Sulfonamide Derivatives as New Tubulin Polymerization Inhibitors with Anti-Cancer Activity” (Molecules, 2022).
